# The Kinase Knowledgebase extract (Sharma et al. 2016)
# Legend:
# [1] = target: PIK3CD (Human) (UniProt O00329); test: Enzyme Assay
# [2] = target: PIK3CB (Human) (UniProt P42338); test: Enzyme Assay
# [3] = target: PIK3CG (human) (UniProt P48736); test: Enzyme Assay
# [4] = target: PIK3CD (Human) (UniProt O00329); test: Cell-Based Assay; details: raji
# Chain of PIK3CG (human) (P48736 whole entry, looked up): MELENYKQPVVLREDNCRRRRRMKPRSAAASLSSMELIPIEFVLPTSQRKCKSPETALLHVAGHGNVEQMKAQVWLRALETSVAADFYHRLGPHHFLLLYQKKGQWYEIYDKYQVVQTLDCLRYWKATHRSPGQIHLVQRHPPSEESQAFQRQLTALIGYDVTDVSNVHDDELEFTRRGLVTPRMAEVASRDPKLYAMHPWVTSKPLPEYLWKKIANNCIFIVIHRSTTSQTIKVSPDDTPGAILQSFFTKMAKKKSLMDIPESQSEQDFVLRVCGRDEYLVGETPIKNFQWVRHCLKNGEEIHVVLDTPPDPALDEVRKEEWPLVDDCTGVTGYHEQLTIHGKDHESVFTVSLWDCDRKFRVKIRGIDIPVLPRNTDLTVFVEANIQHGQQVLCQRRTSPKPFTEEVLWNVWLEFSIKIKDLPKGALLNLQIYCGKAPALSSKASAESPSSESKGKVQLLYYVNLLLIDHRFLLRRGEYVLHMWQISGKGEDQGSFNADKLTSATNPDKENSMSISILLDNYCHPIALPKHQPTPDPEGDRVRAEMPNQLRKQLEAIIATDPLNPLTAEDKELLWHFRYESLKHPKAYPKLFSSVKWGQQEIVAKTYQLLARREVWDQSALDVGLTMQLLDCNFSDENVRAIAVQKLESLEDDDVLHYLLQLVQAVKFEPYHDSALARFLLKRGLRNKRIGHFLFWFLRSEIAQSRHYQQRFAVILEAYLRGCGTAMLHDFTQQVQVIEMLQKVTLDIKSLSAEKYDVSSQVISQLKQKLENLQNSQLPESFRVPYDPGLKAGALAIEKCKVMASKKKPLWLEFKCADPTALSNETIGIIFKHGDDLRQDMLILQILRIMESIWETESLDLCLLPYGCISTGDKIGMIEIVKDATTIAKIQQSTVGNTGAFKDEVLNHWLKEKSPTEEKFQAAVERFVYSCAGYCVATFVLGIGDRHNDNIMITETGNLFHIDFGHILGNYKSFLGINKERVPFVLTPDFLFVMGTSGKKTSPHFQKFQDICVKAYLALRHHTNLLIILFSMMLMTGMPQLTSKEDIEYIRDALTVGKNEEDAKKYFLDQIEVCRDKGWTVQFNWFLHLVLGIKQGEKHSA
# Chain of PIK3CD (Human) (O00329 whole entry, looked up): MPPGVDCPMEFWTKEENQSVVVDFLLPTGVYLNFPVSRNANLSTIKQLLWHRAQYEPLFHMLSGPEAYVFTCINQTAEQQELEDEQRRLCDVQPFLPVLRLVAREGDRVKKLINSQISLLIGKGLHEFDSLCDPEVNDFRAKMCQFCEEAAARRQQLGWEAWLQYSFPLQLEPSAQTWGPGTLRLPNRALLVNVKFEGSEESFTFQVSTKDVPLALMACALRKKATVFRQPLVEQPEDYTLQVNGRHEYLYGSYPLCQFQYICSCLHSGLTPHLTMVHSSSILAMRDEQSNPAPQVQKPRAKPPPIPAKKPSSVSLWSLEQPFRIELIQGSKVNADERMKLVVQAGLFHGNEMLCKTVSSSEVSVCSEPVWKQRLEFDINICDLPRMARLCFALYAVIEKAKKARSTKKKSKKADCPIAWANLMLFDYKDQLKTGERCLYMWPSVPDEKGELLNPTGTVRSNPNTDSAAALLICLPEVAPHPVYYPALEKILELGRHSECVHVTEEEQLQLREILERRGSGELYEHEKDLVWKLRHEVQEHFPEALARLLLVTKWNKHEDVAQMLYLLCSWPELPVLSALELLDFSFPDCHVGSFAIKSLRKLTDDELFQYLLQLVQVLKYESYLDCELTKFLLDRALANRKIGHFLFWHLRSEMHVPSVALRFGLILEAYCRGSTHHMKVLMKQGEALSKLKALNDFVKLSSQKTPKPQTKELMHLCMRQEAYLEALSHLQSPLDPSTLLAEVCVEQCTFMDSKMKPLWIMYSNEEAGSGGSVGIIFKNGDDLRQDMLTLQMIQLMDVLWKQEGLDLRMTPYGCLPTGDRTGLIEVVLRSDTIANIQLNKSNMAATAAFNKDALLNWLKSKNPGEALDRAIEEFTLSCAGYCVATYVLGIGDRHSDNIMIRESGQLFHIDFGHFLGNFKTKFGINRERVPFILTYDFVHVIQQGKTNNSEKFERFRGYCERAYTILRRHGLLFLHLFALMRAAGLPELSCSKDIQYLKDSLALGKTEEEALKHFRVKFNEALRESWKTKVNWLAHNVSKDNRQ
# Chain of PIK3CB (Human) (P42338 whole entry, looked up): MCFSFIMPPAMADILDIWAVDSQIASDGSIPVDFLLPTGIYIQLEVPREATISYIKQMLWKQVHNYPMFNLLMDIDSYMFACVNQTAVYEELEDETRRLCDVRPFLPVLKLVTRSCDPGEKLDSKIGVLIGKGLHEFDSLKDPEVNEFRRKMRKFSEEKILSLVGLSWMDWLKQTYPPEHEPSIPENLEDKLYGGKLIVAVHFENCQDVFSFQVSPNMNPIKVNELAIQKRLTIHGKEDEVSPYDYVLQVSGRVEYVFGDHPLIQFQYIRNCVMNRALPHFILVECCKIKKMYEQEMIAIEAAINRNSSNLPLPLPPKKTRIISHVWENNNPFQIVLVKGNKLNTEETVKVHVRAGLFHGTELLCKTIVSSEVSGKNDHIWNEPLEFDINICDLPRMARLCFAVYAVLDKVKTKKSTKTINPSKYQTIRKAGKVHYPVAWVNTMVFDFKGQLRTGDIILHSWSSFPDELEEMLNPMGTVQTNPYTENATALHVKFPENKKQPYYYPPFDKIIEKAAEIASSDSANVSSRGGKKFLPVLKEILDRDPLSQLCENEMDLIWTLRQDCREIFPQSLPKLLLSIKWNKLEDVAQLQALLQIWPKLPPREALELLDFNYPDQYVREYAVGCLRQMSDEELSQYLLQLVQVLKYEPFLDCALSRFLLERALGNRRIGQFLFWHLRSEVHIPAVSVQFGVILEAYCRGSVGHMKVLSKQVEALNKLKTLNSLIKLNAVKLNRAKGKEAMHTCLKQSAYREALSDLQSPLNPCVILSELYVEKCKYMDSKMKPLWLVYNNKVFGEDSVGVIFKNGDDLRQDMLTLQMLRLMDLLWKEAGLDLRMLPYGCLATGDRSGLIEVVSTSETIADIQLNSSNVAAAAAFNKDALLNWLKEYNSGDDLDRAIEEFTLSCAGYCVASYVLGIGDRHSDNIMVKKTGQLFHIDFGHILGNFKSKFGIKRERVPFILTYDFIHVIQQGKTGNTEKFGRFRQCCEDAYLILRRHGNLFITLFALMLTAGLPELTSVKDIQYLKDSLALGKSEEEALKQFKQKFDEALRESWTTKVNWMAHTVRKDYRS
SMILES,IC50 [1] [nM],IC50 [2] [nM],IC50 [3] [nM],IC50 [4] [nM]
Cc1ncsc1C#Cc1cccc2cc([C@H](C)NC(=O)c3c(N)nn4cccnc34)n(-c3ccccc3)c(=O)c12,5000 to 10000,5000 to 10000,1000 to 5000,1000 to 10000
C[C@H](NC(=O)c1c(N)nn2cccnc12)c1cc2ccc3ccccc3c2c(=O)n1-c1ccccc1,5000 to 10000,5000 to 10000,500 to 1000,1000 to 10000
C[C@H](NC(=O)c1c(N)nn2cccnc12)c1cc2cccc(C#Cc3ccccc3)c2c(=O)n1-c1ccccc1,1 to 500,5000 to 10000,1000 to 5000,1 to 100
Cc1csc(C#Cc2cccc3cc([C@H](C)NC(=O)c4c(N)nn5cccnc45)n(-c4ccccc4)c(=O)c23)n1,5000 to 10000,5000 to 10000,100 to 500,100 to 500
COc1cc(C#Cc2cccc3cc([C@H](C)NC(=O)c4c(N)nn5cccnc45)n(-c4ccccc4)c(=O)c23)ccn1,5000 to 10000,5000 to 10000,1000 to 5000,100 to 500
C[C@H](NC(=O)c1c(N)nn2cccnc12)c1cc2cccc(C#Cc3cccnc3)c2c(=O)n1-c1ccccc1,5000 to 10000,5000 to 10000,100 to 500,100 to 500
C[C@H](NC(=O)c1cnn2cccnc12)c1cc2cccc(C#Cc3cnn(C)c3)c2c(=O)n1-c1ccccc1,5000 to 10000,5000 to 10000,100 to 500,1000 to 10000
Cc1cnc(C(=O)N[C@@H](C)c2cc3cccc(C#Cc4cnn(C)c4)c3c(=O)n2-c2ccccc2)c(N)n1,5000 to 10000,5000 to 10000,1000 to 5000,1000 to 10000
C[C@H](NC(=O)c1c(N)nn2cccnc12)c1cc2cccc(C#CC3CCNCC3)c2c(=O)n1-c1ccccc1,5000 to 10000,5000 to 10000,500 to 1000,1000 to 10000
COc1ccc(C#Cc2cccc3cc([C@H](C)NC(=O)c4c(N)nn5cccnc45)n(-c4ccccc4)c(=O)c23)cn1,5000 to 10000,5000 to 10000,100 to 500,500 to 1000
CC(C)C#Cc1cccc2nc([C@H](C)NC(=O)c3c(N)nn4cccnc34)n(-c3ccccc3)c(=O)c12,5000 to 10000,5000 to 10000,500 to 1000,500 to 1000
C[C@H](NC(=O)c1c(N)nn2cccnc12)c1cc2cccc(CC(=O)c3cnn(C)c3)c2c(=O)n1-c1ccccc1,5000 to 10000,5000 to 10000,500 to 1000,100 to 500
Cc1nc(C#Cc2cccc3nc([C@H](C)NC(=O)c4c(N)nn5cccnc45)n(-c4ccccc4)c(=O)c23)cs1,5000 to 10000,5000 to 10000,1 to 100,500 to 1000
C[C@H](NC(=O)c1c(N)nn2cccnc12)c1cc2cccc(CC(=O)c3cn[nH]c3)c2c(=O)n1-c1ccccc1,1000 to 5000,5000 to 10000,500 to 1000,100 to 500
C[C@H](NC(=O)c1c(N)nn2cccnc12)c1cc2cccc(C#CCN3CCN(C)CC3)c2c(=O)n1-c1ccccc1,5000 to 10000,5000 to 10000,100 to 500,100 to 500
C[C@H](NC(=O)c1c(N)nn2cccnc12)c1cc2cccc(C#CC3CC3)c2c(=O)n1C1CC1,1000 to 5000,1000 to 5000,1000 to 5000,100 to 500
Cc1ccc(C#Cc2cccc3cc([C@H](C)NC(=O)c4c(N)nn5cccnc45)n(-c4ccccc4)c(=O)c23)cn1,5000 to 10000,5000 to 10000,1 to 100,500 to 1000
C/C=C/c1cccc2cc([C@H](C)NC(=O)c3c(N)nn4cccnc34)n(-c3ccccc3)c(=O)c12,5000 to 10000,5000 to 10000,100 to 500,1 to 100
Cc1c(C#Cc2cccc3nc([C@H](C)NC(=O)c4c(N)nn5cccnc45)n(-c4ccccc4)c(=O)c23)cnn1C,5000 to 10000,5000 to 10000,100 to 500,100 to 500
C[C@H](NC(=O)c1c(N)nn2cccnc12)c1cc2cccc(C#Cc3cocn3)c2c(=O)n1-c1ccccc1,1000 to 5000,1000 to 5000,1 to 100,100 to 500

SMILES,IC50 [1] [nM],IC50 [2] [nM],IC50 [3] [nM],IC50 [4] [nM]
C[C@H](NC(=O)c1c(N)nn2cccnc12)c1cc2cccc(C#Cc3cncs3)c2c(=O)n1-c1ccccc1,5000 to 10000,5000 to 10000,100 to 500,100 to 500
COc1cnc(C(=O)N[C@@H](C)c2cc3cccc(C#Cc4cnn(C)c4)c3c(=O)n2-c2ccccc2)c(N)n1,5000 to 10000,5000 to 10000,> 5000,1000 to 10000
CC#Cc1cccc2nc([C@H](C)NC(=O)c3c(N)nn4cccnc34)n(-c3ccccc3)c(=O)c12,500 to 1000,1000 to 5000,1 to 100,1 to 100
COCC#Cc1cccc2cc([C@H](C)NC(=O)c3c(N)nn4cccnc34)n(-c3ccccc3)c(=O)c12,1000 to 5000,1000 to 5000,1 to 100,100 to 500
CC(=O)N1CCC(C#Cc2cccc3cc([C@H](C)NC(=O)c4c(N)nn5cccnc45)n(-c4ccccc4)c(=O)c23)CC1,5000 to 10000,5000 to 10000,100 to 500,500 to 1000
C[C@H](NC(=O)c1c(N)nn2cccnc12)c1cc2cccc(C#CCN3CCCC3=O)c2c(=O)n1-c1ccccc1,1 to 500,1000 to 5000,1 to 100,1 to 100
C[C@H](NC(=O)c1c(N)nn2cccnc12)c1cc2cccc(C#C[C@@H](C)O)c2c(=O)n1-c1ccccc1,500 to 1000,5000 to 10000,1 to 100,100 to 500
Cc1ncc(C#Cc2cccc3cc([C@H](C)NC(=O)c4c(N)nn5cccnc45)n(-c4ccccc4)c(=O)c23)s1,5000 to 10000,5000 to 10000,100 to 500,100 to 500
C[C@H](NC(=O)c1c(N)nn2cccnc12)c1cc2cccc(C#Cc3ccn[nH]3)c2c(=O)n1-c1ccccc1,5000 to 10000,5000 to 10000,100 to 500,100 to 500
C[C@H](NC(=O)c1c(N)nn2cccnc12)c1cc2cccc(C#CC3CCOC3)c2c(=O)n1-c1ccccc1 (stereo partly specified),5000 to 10000,5000 to 10000,1 to 100,100 to 500
C[C@H](NC(=O)c1c(N)nn2cccnc12)c1cc2cccc(C#CC3CCOCC3)c2c(=O)n1-c1ccccc1,5000 to 10000,5000 to 10000,100 to 500,1 to 100
CCOC(C#Cc1cccc2cc([C@H](C)NC(=O)c3c(N)nn4cccnc34)n(-c3ccccc3)c(=O)c12)OCC,5000 to 10000,5000 to 10000,500 to 1000,500 to 1000
C#Cc1cccc2nc([C@H](C)NC(=O)c3c(N)nn4cccnc34)n(-c3ccccc3)c(=O)c12,1000 to 5000,1000 to 5000,1 to 100,1 to 100
C[C@H](NC(=O)c1c(N)nn2cccnc12)c1cc2cccc(C#Cc3cn[nH]c3)c2c(=O)n1-c1ccccc1,5000 to 10000,1000 to 5000,1 to 100,100 to 500
COc1ncc(C#Cc2cccc3cc([C@H](C)NC(=O)c4c(N)nn5cccnc45)n(-c4ccccc4)c(=O)c23)cn1,5000 to 10000,5000 to 10000,100 to 500,100 to 500
C[C@H](NC(=O)c1c(N)nn2cccnc12)c1cc2cccc(C#CC3CCCC3)c2c(=O)n1-c1ccccc1,5000 to 10000,5000 to 10000,1000 to 5000,1000 to 10000
C[C@H](NC(=O)c1c(N)nn2cccnc12)c1cc2cccc(C#CC(F)(F)F)c2c(=O)n1-c1ccccc1,5000 to 10000,5000 to 10000,1000 to 5000,500 to 1000
Cc1c(C#Cc2cccc3cc([C@H](C)NC(=O)c4c(N)nn5cccnc45)n(-c4ccccc4)c(=O)c23)cnn1C,5000 to 10000,5000 to 10000,100 to 500,500 to 1000
C#Cc1cccc2nc([C@H](C)NC(=O)c3c(N)nn4cccnc34)n(-c3ccc(F)c(F)c3)c(=O)c12,5000 to 10000,5000 to 10000,100 to 500,100 to 500
